Experimental data published in patent US20230340012A1, “NATURAL AND SYNTHETIC COMPOUNDS FOR TREATING CANCER AND OTHER DISEASES” (PACIFIC ARROW LIMITED, priority 2009, published 2023).
Values after ≈ are worked out from the molar mass of the structure shown.

Key:
[1] = tested on: H460; assay: MTT assay, lung (H460); assay type: cell-based, human; settings: for IC50 of lung (H460): MTT
Method: (§1) Cells. HTB-9 (bladder), HeLa-S3 (cervix), DU145 (prostate), H460 (lung), MCF-7 (breast), K562 (leukemia), HCT116 (colon), HepG2 (liver), U2OS (bone), T98G (brain), SK-MEL-5 (Skin) and OVCAR 3, ES2 (ovary), Pancreas (Capan), Mouth (KB), Kidney(A498).
(§2) MTT Assay. The procedure for MTT assay followed the method described by Carmichael et al. (1987) with modifications. The cells were seeded into a 96-well plate at for 24 hours before drug-treatment. The cells were then exposed to the drugs for 48, 72, or 96 hours. After the drug-treatment, MTT (0.5 mg/mL) was added to cultures and incubated for an hour. The formazan (product of the reduction of tetrazolium by viable cells) formed and was dissolved with DMSO and the O.D. at 490 nm, and was measured by an ELISA reader. The MTT level of the cells before drug-treatment was also measured (T0). The % cell-growth (%G) is calculated as: %G = (TD-T0 / TC-T0) x 100(1), where TC or TD represents O.D. readings of control or drug-treated cells. When T0 > TD, then the cytotoxicity (LC) expressed as % of the control is calculated as: %LC = (TD-T0 / T0) × 100(2).
Methods: • A. Cells • -- H460 cells are derived from a Human Lung large cell carcinoma. Cells were grown in RPMI 1640 medium supplemented with 10% FCS, antibiotics and glutamine. 5000 cells were seeded in a well (96-welled plate) for one day before drug-treatment • B. Drug treatment: • -- Drug: Tig-S (stored as a 1000x stock solution in DMSO) was used. • -- Drug concentration used: from 0.15 - 20 ug/ml. • -- Drug-treatment was carried out for 1, 2 and 4 days. For the 4 days incubation, cells were fed with fresh medium (with drug) on day 2. • C. At the end of the drug-treatment, cytotoxic test was performed with MTT assay. Results: • 1. Tig-S inhibits H460 cells’ growth with the IC50 of drug 3 ug/ml. • 2. […] cells growth inhibition was observed beyond drug 5 ug/ml. • 3. No dead cell was found at drug concentration in 20 ug/ml.

[2] = tested on: HTB-9; assay: MTT assay, bladder (HTB-9); assay type: cell-based, human
Method: as §1, §2

[3] = tested on: Capan; assay: MTT assay, pancreas (Capan); assay type: cell-based, human
Method: as §1, §2
• A. Cells: Capan cells are derived from Human pancreas carcinoma (pancreas). Cells were grown in RPMI 1640 medium supplemented with 10% FCS, antibiotics and glutamine. 10000 cells were seeded in a well (96-welled plate) for one day before drug-treatment • B. Drug treatment: • -- Drug: Tig-S (stored as a 1000x stock solution in DMSO) was used. • -- Drug concentration used: from 0.15 - 20 ug/ml. • -- Drug-treatment was carried out for 3 days. • C. At the end of the drug-treatment, cytotoxic test was performed with MTT assay. The percentage of drug-treated cells’ growth as compared to those of the no drug control is determined.

[4] = tested on: SK-Mel-5; assay: MTT assay, skin (SK-Mel-5); assay type: cell-based, human
Method: as §1, §2

[5] = tested on: KB; assay: MTT assay, mouth (KB); assay type: cell-based, human
Method: as §1, §2

[6] = tested on: T98G; assay: MTT assay, brain (T98G); assay type: cell-based, human
Method: as §1, §2

[7] = tested on: ES2 cells; assay: Inhibition of cell adhesion, ES2; assay type: cell-based, human; settings: for ES2 cells attached to flasks compared to no drug controls / unattached cells alive: 5 ug/ml; for ES2 cells attached to flasks compared to no drug controls: 5 hours; for unattached cells alive: trypan Blue exclusion; for unattached cells alive / cells attached to flasks: ES2 or Hey8A; for cells attached to flasks: 10 ug/ml
Method: Methods and Results. ES2 or Hey8A cells were plated in T25 flasks with medium containing 5 ug/ml of compounds selected from structure (2A) including E4A-Tig-R, E4A-Tig-V, E4A-Tig-S, E4A-Tig-N, E4A-Tig-Q, E4A-Tig-T. Cultures were incubated for 5 hours. Attached cells were removed from flasks by trypsinization and the numbers/amounts were counted. Compared to no drug controls, 80 ± 4% of ES2 cells and 60 ± 4% of Hey8A cells were found attached to flasks under this condition. At 5 ug/ml of above compounds, over 90% of unattached cells are alive as determined by the trypan Blue exclusion assay and by their ability to re-attach to flasks when plating in medium without tested compounds. However, with 10 ug/ml tested compounds, less than 40% of cells attached to flasks and many of them are dead cells.

[8] = tested on: Fibronectin; assay: Fibronectin secretion experiment (Western blot); assay type: cell-based; settings: bladder, cervix, prostate, lung, breast, leukemia, colon, liver, bone, brain, skin, ovary, pancreas, mouth, kidney cells; 24 hours
Method: Western blot is applied in this invention as a method to detect the specific proteins in treated and untreated cells with compounds in this invention, wherein the cells are bladder, cervix, prostate, lung, breast, leukemia, colon, liver, bone, brain, Skin, ovary, Pancreas(Capan), Mouth(KB), Kidney.
Cells: targeted cells were grown in RPMI 1640 medium. 1.5 million cells were seeded in a T25 flask and grown for 24 hours before drug-treatment.
Drug-treatment: Cells cultures were replaced with fresh RPMI medium containing either 2.5 ul of DMSO (as control) [D]; or 10, 20, 30, 40, 80 ug/ml of tested compounds.
After 24 hours, aliquot of culture medium was taken out for Fibronectin determination (Western blot method).
Cell viability at 24 hours was determined by MTT assay. Cultures were replaced with RPMI medium (5 ml) with MTT and incubated for an hour. The formation of formazan was dissolved in 10 ml of DMSO and OD at 570 nm was measured (MTT units). Western Blot: Spent culture medium was mixed with SDS sample buffer, boiled for 3 minutes before loading to SDS gel. Samples were applied to a 6-10% SDS gel and electrophoresis was conducted with 100 volts for 2 hours. Protein was transferred to a nitrocellulose membrane electrophoretically. The nitrocellulose blot was incubated with the first antibody and second antibody (AP conjugated, Promega S3721). The immuno-bands were developed with BCIP/NBT color development system.
Determination of Western blot band intensity: The band-images of Western blot were captured with a digital camera and the intensity of bands was determined using “Image J” software.

## 24,28-O-Tigloyl-3β,16α, 21β, 22a, 24β, 28-hexahydroxyolean-12-ene [Tig-R]
[1]
  IC50 of lung (H460): 4.8 µg/mL
[2]
  IC50 of bladder (HTB-9): 2.5 µg/mL
[3]
  IC50 of pancreas (Capan): 2.4 µg/mL
[4]
  IC50 of skin (SK-Mel-5): 5.1 µg/mL
[5]
  IC50 of mouth (KB): 3 µg/mL
[6]
  IC50 of brain (T98G): 8 µg/mL
[7]
  ES2 cells attached to flasks compared to no drug controls: 80 ± 4%
  unattached cells alive: over 90%
  cells attached to flasks: less than 40%
[8]
  inhibition of fibronectin secretion: 20-40%

## CC=C(C)C(=O)OCC1(C)C(O)CCC2(C)C1CCC1(C)C2CC=C2C3CC(C)(C)C(O)C(O)C3(CO)C(O)CC21C (stereo not shown) [Tig-N]
[1]
  IC50 of lung (H460): 13 µg/mL
[2]
  IC50 of bladder (HTB-9): 7.5 µg/mL
[3]
  IC50 of pancreas (Capan): 8 µg/mL
[4]
  IC50 of skin (SK-Mel-5): 15 µg/mL
[5]
  IC50 of mouth (KB): 9 µg/mL
[6]
  IC50 of brain (T98G): 19 µg/mL
[7]
  ES2 cells attached to flasks compared to no drug controls: 80 ± 4%
  unattached cells alive: over 90%
  cells attached to flasks: less than 40%
[8]
  inhibition of fibronectin secretion: 20-40%

## CC=C(C)C(=O)OCC1(C)C(O)CCC2(C)C1CCC1(C)C2CC=C2C3CC(C)(C)C(OC(=O)C(C)=CC)C(O)C3(CO)C(O)CC21C (stereo not shown) [Tig-S]
[1]; 4 days
  IC50, lung H460 cells growth: 3 µg/mL (≈ 4.47 µM)
[1]; Experiment 32, treatment 1, 2 and 4 days
  IC50, H460 cells' growth: 3 µg/mL (≈ 4.47 µM)
[1]
  IC50 of lung (H460): 5.6 µg/mL
[1]; at 20 ug/ml
  dead cells, H460: No dead cell
[1]; one day
  IC50, lung H460 cells growth: 3.4 µg/mL (≈ 5.07 µM)
[2]
  IC50 of bladder (HTB-9): 3.5 µg/mL
[3]
  IC50 of pancreas (Capan): 2.9 µg/mL
[3]; 3 days
  IC50, pancreas cancer (Capan) cells' growth: about 1 ug/ml
[4]
  IC50 of skin (SK-Mel-5): 5.8 µg/mL
[6]
  IC50 of brain (T98G): 9 µg/mL
[7]
  ES2 cells attached to flasks compared to no drug controls: 80 ± 4%
  unattached cells alive: over 90%
  cells attached to flasks: less than 40%
[8]
  inhibition of fibronectin secretion: 20-40%

## CC=C(C)C(=O)OCC1(C)C(O)CCC2(C)C1CCC1(C)C2CC=C2C3CC(C)(C)C(O)C(OC(=O)C(C)=CC)C3(COC(=O)C(C)=CC)C(O)CC21C (stereo not shown) [Tig-T]
[1]
  IC50 of lung (H460): 21 µg/mL
[3]
  IC50 of pancreas (Capan): 10 µg/mL
[4]
  IC50 of skin (SK-Mel-5): 22 µg/mL
[5]
  IC50 of mouth (KB): 13 µg/mL
[6]
  IC50 of brain (T98G): 26 µg/mL
[7]
  ES2 cells attached to flasks compared to no drug controls: 80 ± 4%
  unattached cells alive: over 90%
  cells attached to flasks: less than 40%
[8]
  inhibition of fibronectin secretion: 20-40%
